Molecular target: modified SphK1 (Homo sapiens, UniProt Q9NYA1)
Test: SphK1 biochemical kinase assay (384-well flashplate)
Settings: IC50 ranges; 5 nM modified SphK1, 1 μM ATP, 30° C., 120 min; read-out: SphK1 Inhibition IC50
Description: The kinase assay is carried out as a 384-well flashplate assay.
5 nM modified SphK1, 800 nM omega-biotinyl-D-erythro-sphingosine and 1 μM ATP (with 0.3 μCi of ^33P-ATP/well) are incubated in a total volume of 50 μl (25 mM HEPES, 5 mM MgCl2, 1 mM dithiothreitol, 0.01% of Brij35, 0.1% of BSA (fatty acid-free), pH 7.4) without or with test substance (5-10 concentrations) at 30° C. for 120 min. The reaction is terminated using 25 μl of 200 mM EDTA solution, filtered off with suction at room temperature after 30 min, and the cavities are washed 3 times with 100 μl of 0.9% NaCl solution. The non-specific proportion of the kinase reaction (blank) is determined using 0.5 mM NaCl. Radioactivity is measured in topcount. IC50 values are calculated using RS1.

Sequence of modified SphK1 (Q9NYA1 whole entry): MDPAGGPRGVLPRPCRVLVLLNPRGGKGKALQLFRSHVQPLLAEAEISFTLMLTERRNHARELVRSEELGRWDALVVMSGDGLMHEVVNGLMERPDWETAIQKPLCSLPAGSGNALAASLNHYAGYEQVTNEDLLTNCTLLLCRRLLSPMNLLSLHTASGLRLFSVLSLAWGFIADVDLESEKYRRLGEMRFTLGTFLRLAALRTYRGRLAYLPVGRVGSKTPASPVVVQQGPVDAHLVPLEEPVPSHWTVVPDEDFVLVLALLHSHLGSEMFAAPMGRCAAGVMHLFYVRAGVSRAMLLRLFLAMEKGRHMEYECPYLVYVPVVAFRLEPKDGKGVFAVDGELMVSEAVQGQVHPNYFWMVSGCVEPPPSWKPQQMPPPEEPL

SMILES | IC50 [nM]
CC1(C)CCc2cc(-c3csc(N4CCC(NCCCO)CC4)n3)ccc21 [3-{1-[4-(1,1-Dimethylindan-5-yl)thiazol-2-yl]piperidin-4-ylamino}propan-1-ol] | 100 to 1000
CC1(C)CCC(C)(C)c2cc(-c3csc(C4CCC(N)CC4)n3)ccc21 (stereo not shown) | 100 to 1000
CC1(C)CCC(C)(C)c2cc(-c3csc(C4CCCN(CCCCO)C4)n3)ccc21 (stereo not shown) | > 1000
CC1(C)CCC(C)(C)c2cc(-c3csc(N4CCC(C(=O)NCCO)CC4)n3)ccc21 | > 1000
CC(=O)N1CCC(c2csc(-c3ccc4c(c3)C(C)(C)CCC4(C)C)n2)CC1 | 100 to 1000
CC1(C)CCC(C)(C)c2cc(-c3csc(N4CCN(CC(O)CO)CC4)n3)ccc21 (stereo not shown) | 100 to 1000
CC1(C)CCC(C)(C)c2cc(-c3csc(N4CCC(N5CCN(CCO)CC5)CC4)n3)ccc21 | 100 to 1000
CC1(C)CCC(C)(C)c2cc(-c3csc(N4CCC(N)CC4)n3)ccc21 [1-[4-(5,5,8,8-Tetramethyl-5,6,7,8-tetrahydronaphthalen-2-yl)thiazol-2-yl]piperidin-4-ylamine] | 100 to 1000
CC1(C)CCC(C)(C)c2cc(-c3csc(N4CCC(N5CCCC(O)C5)CC4)n3)ccc21 (stereo not shown) [1′-[4-(5,5,8,8-Tetramethyl-5,6,7,8-tetrahydronaphthalen-2-yl)thiazol-2-yl]-1,4′-bipiperidinyl-3-ol] | 100 to 1000
CC1(C)CCC(C)(C)c2cc(-c3csc(N4CCC(C5CCNCC5)CC4)n3)ccc21 [1-[4-(5,5,8,8-Tetramethyl-5,6,7,8-tetrahydronaphthalen-2-yl)thiazol-2-yl]-4,4′-bipiperidinyl] | 100 to 1000
CC1(C)CCC(C)(C)c2cc(-c3csc(N4CCC(CN)CC4)n3)ccc21 | 100 to 1000
CC1(C)CCC(C)(C)c2cc(-c3ncc(C4CCNCC4)o3)ccc21 [4-[2-(5,5,8,8-Tetramethyl-5,6,7,8-tetrahydronaphthalen-2-yl)oxazol-5-yl]piperidine] | > 1000
CC1(C)CCC(C)(C)c2cc(-c3csc(N4CC[C@@H](N)C4)n3)ccc21 | 100 to 1000
CC1(C)CCC(C)(C)c2cc(-c3csc(C4CCCN(CCCO)C4)n3)ccc21 (stereo not shown) | > 1000
CC1(C)CCC(C)(C)c2cc(-c3csc(N4CCC(NCc5c[nH]cn5)CC4)n3)ccc21 [(1H-Imidazol-4-ylmethyl)-{1-[4-(5,5,8,8-tetramethyl-5,6,7,8-tetrahydronaphthalen-2-yl)thiazol-2-yl]piperidin-4-yl}amine] | < 100
Cn1cncc1CNC1CCN(c2nc(-c3ccc4c(c3)C(C)(C)CCC4(C)C)cs2)CC1 [(3-Methyl-3H-imidazol-4-ylmethyl)-{1-[4-(5,5,8,8-tetramethyl-5,6,7,8-tetrahydronaphthalen-2-yl)thiazol-2-yl]piperidin-4-yl}amine] | 100 to 1000
CC1(C)CCC(C)(C)c2cc(-c3csc(N4CCC(N5CCOCC5)CC4)n3)ccc21 | > 1000
CC1(C)CCC(C)(C)c2cc(-c3nc(C4CCNCC4)cs3)ccc21 [4-[2-(5,5,8,8-Tetramethyl-5,6,7,8-tetrahydronaphthalen-2-yl)thiazol-4-yl]piperidine] | 100 to 1000
CC1(C)CCC(C)(C)c2cc(-c3csc(N4CCC(NC[C@@H](O)CO)CC4)n3)ccc21 | 100 to 1000

Next, values leading:

IC50 [nM] | SMILES
> 1000 | CC1(C)CCCc2cc(-c3csc(N4CCN(CCCCCO)CC4)n3)ccc21 [5-{4-[4-(5,5-Dimethyl-5,6,7,8-tetrahydronaphthalen-2-yl)thiazol-2-yl]-piperazin-1-yl}pentan-1-ol]
100 to 1000 | CC1(C)CCC(C)(C)c2cc(-c3csc(N4CCN(CCO)CC4)n3)ccc21
100 to 1000 | CC1(C)CCC(C)(C)c2cc(-c3csc(N4CCC(N(Cc5cc[nH]n5)Cc5cc[nH]n5)CC4)n3)ccc21 [Bis-(1H-pyrazol-3-ylmethyl)-{1-[4-(5,5,8,8-tetramethyl-5,6,7,8-tetrahydronaphthalen-2-yl)thiazol-2-yl]piperidin-4-yl}amine]
< 100 | CC1(C)CCC(C)(C)c2cc(-c3csc(N4CCC(NC[C@H](O)CO)CC4)n3)ccc21
100 to 1000 | CN1CCN(C2CCN(c3nc(-c4ccc5c(c4)C(C)(C)CCC5(C)C)cs3)CC2)CC1 [1-Methyl-4-{1-[4-(5,5,8,8-tetramethyl-5,6,7,8-tetrahydronaphthalen-2-yl)thiazol-2-yl]piperidin-4-yl}piperazine]
100 to 1000 | CC1(C)CCc2cc(-c3csc(N4CCC(NCCO)CC4)n3)ccc21 [2-{1-[4-(1,1-Dimethylindan-5-yl)thiazol-2-yl]piperidin-4-ylamino}ethanol]
100 to 1000 | CC1(C)CCC(C)(C)c2cc(-c3csc(N4CCC(NC[C@@H](N)CO)CC4)n3)ccc21
100 to 1000 | CC1(C)CCC(C)(C)c2cc(-c3csc(N4CCN(C5CCCCC5O)CC4)n3)ccc21 (stereo not shown)
< 100 | CC1(C)CCC(C)(C)c2cc(-c3csc(N4CCC(NCCO)CC4)n3)ccc21
< 100 | CC(=O)NC1CCN(C2CCN(c3nc(-c4ccc5c(c4)C(C)(C)CCC5(C)C)cs3)CC2)C1 (stereo not shown)
100 to 1000 | CC1(C)CCC(C)(C)c2cc(-c3csc(C4CCCNC4)n3)ccc21 (stereo not shown) [3-[4-(5,5,8,8-Tetramethyl-5,6,7,8-tetrahydronaphthalen-2-yl)thiazol-2-yl]piperidine]
> 1000 | CC1(C)CCC(C)(C)c2cc(-c3csc(C4CCCN(CCCCCO)C4)n3)ccc21 (stereo not shown)
< 100 | CC1(C)CCC(C)(C)c2cc(-c3csc(N4CCC(NCCCO)CC4)n3)ccc21
100 to 1000 | CC1(C)CCCc2cc(-c3csc(N4CCC(N(CCO)CCO)CC4)n3)ccc21
100 to 1000 | CC1(C)CCC(C)(C)c2cc(-c3csc(N4CCC(CCN5CCCC5)CC4)n3)ccc21 [4-(2-Pyrrolidin-1-ylethyl)-1-[4-(5,5,8,8-tetramethyl-5,6,7,8-tetrahydronaphthalen-2-yl)thiazol-2-yl]piperidine]
> 1000 | CCOC(=O)C1CCN(c2nc(-c3ccc4c(c3)C(C)(C)CCC4(C)C)cs2)CC1 [1-[4-(5,5,8,8-Tetramethyl-5,6,7,8-tetrahydronaphthalen-2-yl)thiazol-2-yl]piperidine-4-carboxylic acid ethyl ester]
100 to 1000 | CC1(C)CCC(C)(C)c2cc(-c3csc(N4CCCC(C(=O)NCCO)C4)n3)ccc21 (stereo not shown)
100 to 1000 | CC1(C)CCC(C)(C)c2cc(-c3csc(N4CCN(CCCO)CC4)n3)ccc21

From patent US8907098B2, “Inhibitors of sphingosine kinase” (MERCK PATENT GmbH, priority 2009, dated 2014)
